Laboratory results: the NIST ThermoML archive (doi:10.1016/j.jct.2003.09.010)
± gives the expanded uncertainty stated by the source.

Experiment: mn = molality of the nth substance listed, in mol/kg
Conditions: 298.15 K, 101 kPa, Liquid

SMILES	mass density (m1 = 1)	mass density (m1 = 0.05)	mass density (m1 = 0.5)
CCCCCCCCCCCCCCCC[N+](C)(C)C.[Br-] [N,N,N-trimethyl-1-hexadecanaminium bromide] + O	1004.43 ± 0.46 kg/m3		
CCCCCCCCCCCCOS(=O)(=O)[O-].[Na+] [sodium dodecyl sulfate] + O	1027.43 ± 0.33 kg/m3 [middle of 7 runs]	999.133 ± 0.27 kg/m3 [middle of 5 runs]	1014.57 ± 0.3 kg/m3 [middle of 5 runs]
